Test results reported in paper PMC9527238, “Glutamate and GABAA receptor crosstalk mediates homeostatic regulation of neuronal excitation in the mammalian brain” (Signal Transduction and Targeted Therapy, 2022).

Key:
[1] = target: T1, α1β2 GABAARs (Rattus norvegicus, UniProt P62813+P63138); assay: [3H]glutamate binding assay, plasma membranes of HEK293 cells overexpressing α1 and β2; conditions: 40 nM [3H]glutamate + 0.4 mM non-radiolabeled competitor
T1 construct: expressed in transfected cells; host or cells: HEK293
Description: For membrane preparation, transfected or non-transfected HEK293 cells were washed twice with cold PBS and harvested by scraping into 5 ml cold PBS. Cells were then centrifuged at 1200 × g for 12 min at 4 °C and medium was removed. The washing procedure was repeated twice. Then the cell pellet was re-suspended into 1 ml of 50 mM Tris-HCl buffer (pH 7.4, with protease inhibitor) and homogenized using syringes with 18-G, 21-G and 23-G needles.
To separate the membrane, the homogenate were centrifuged for 20 min at 20,000 × g at 4 °C. Then the pellet was re-suspended into 1 ml of 50 mM Tris-HCl buffer, pH 7.4 and centrifuged again. After repeating this procedure for one more time, the pellet was re-suspended into 1 ml of 50 mM Tris-HCl buffer, pH 7.4 and the protein concentration was measured.
To conduct the binding assay, 100 µg membrane enriched preparation was incubated with 40 nM [3H]-Glutamate in a total volume of 0.5 ml in 50 mM Tris-HCl buffer, pH 7.4 for 1 h on ice. […] Then the reaction was terminated by quickly filtering the solution on Whatman filter paper and washing by 3.5 ml Tris-HCl buffer. Radioactivity was measured in a Beckman liquid scintillation counter.

[2] = target: T2, α1 β2 ^I180A γ2 GABAAR (Rattus norvegicus, UniProt P62813+P63138, I205A); assay: Patch clamp, HEK293, mutant GABAAR; assay type: cell-based; conditions: GABA-evoked currents
T2 construct: expressed in transfected cells; host or cells: HEK293
Description: (§1) To positively confirm one of these two putative binding sites involved in glutamate binding, we performed a systemic mutational analysis of critical amino acids around these two sites followed by electrophysiological characterizations of their impacts on glutamate potentiation in HEK293 cells expressing wild-type or mutated α1β2γ2 GABAARs (Table 1).
(§2) HEK293 cells were cultured in DMEM (Invitrogen) supplemented with 10% fetal bovine serum. Cells were grown to 40–60% confluence and transiently transfected using Lipofectamine 2000 (Invitrogen) with 1:0.5–1 plasmid/lipid ratio. Cells were transfected with a pBK-CMV expression vector containing a rat recombinant GABAAR α, β or γ subunits. Co-transections were done with a plasmid ratio of 1:1 αβ and 2:2:1 for αβγ subunit combinations, respectively. pcDNA3.1-GFP was also co-transfected along with GABAAR subunits as a transfected marker in order to facilitate the visualization of the transfected cells during electrophysiological experiments. Cells were re-plated on glass coverslips after 15–20 h transfection and were cultured for an additional 15–24 h before whole-cell patch-clamp recordings.
(§3) The site-directed mutagenesis of α, β or γ subunits were performed by using the QuikChange method (Stratagene). […] Wild-type or mutant subunits were transfected in HEK293 cells and subjected to electrophysiology examinations.
(§4) Whole-cell patch-clamp recordings were performed under voltage-clamp mode using an Axopatch 200B or 1D patch-clamp amplifier (Molecular Devices) on HEK293 cells and cultured neurons. Whole-cell currents were recorded at a holding potential of −60 mV, and signals were filtered at 2 kHz, digitized at 10 kHz (Digidata 1322 A). Recording pipettes (3–5 MΩ) were filled with the intracellular solution that contained (mM): CsCl 140, HEPES 10, Mg-ATP 4, QX-314 5, pH 7.20; osmolarity, 290–295 mOsm. BAPTA (10 mM) was added in the intracellular solution. The coverslips were continuously superfused with the extracellular solution containing (mM): NaCl 140, KCl 5.4, HEPES 10, MgCl2 1.0, CaCl2 1.3, glucose 20, pH 7.4; osmolarity, 305–315 mOsm. […] Dose–response curves were created by fitting data to Hill equation: I = Imax/[1 + (EC50/[A])^n], where I is the current, Imax is the maximum current, [A] is a given concentration of agonist, n is the Hill coefficient. […] All experiments were performed at room temperature.

[3] = target: T3, α1 β2^G126A γ2 GABAAR (Rattus norvegicus, UniProt P62813+P63138, G151A); assay: Patch clamp, HEK293, mutant GABAAR; assay type: cell-based
T3 construct: expressed in transfected cells; host or cells: HEK293
Description: as §1, §2, §3, §4

[4] = target: T4, α1 β2^Q63A γ2 GABAAR (Rattus norvegicus, UniProt P62813+P63138, Q88A); assay: Patch clamp, HEK293, mutant GABAAR; assay type: cell-based
T4 construct: expressed in transfected cells; host or cells: HEK293
Description: as §1, §2, §3, §4

[5] = target: T5, α1 β2^V177A γ2 GABAAR (Rattus norvegicus, UniProt P62813+P63138, V202A); assay: Patch clamp, HEK293, mutant GABAAR; assay type: cell-based
T5 construct: expressed in transfected cells; host or cells: HEK293
Description: as §1, §2, §3, §4

[6] = target: T6, α1 β2^Y61A γ2 GABAAR (Rattus norvegicus, UniProt P62813+P63138, Y86A); assay: Patch clamp, HEK293, mutant GABAAR; assay type: cell-based
T6 construct: expressed in transfected cells; host or cells: HEK293
Description: as §1, §2, §3, §4

[7] = target: T7, α1^E208A β2 γ2 GABAAR (Rattus norvegicus, UniProt P62813+P63138, E235A); assay: Patch clamp, HEK293, mutant GABAAR; assay type: cell-based; conditions: GABA-evoked currents
T7 construct: expressed in transfected cells; host or cells: HEK293
Description: as §1, §2, §3, §4

[8] = target: T8, α1^F99A β2 γ2 GABAAR (Rattus norvegicus, UniProt P62813+P63138, F126A); assay: Patch clamp, HEK293, mutant GABAAR; assay type: cell-based; conditions: GABA-evoked currents
T8 construct: expressed in transfected cells; host or cells: HEK293
Description: as §1, §2, §3, §4

[9] = target: T9, α1^H101A β2 γ2 GABAAR (Rattus norvegicus, UniProt P62813+P63138, H128A); assay: Patch clamp, HEK293, mutant GABAAR; assay type: cell-based; conditions: GABA-evoked currents
T9 construct: expressed in transfected cells; host or cells: HEK293
Description: as §1, §2, §3, §4

[10] = target: T10, α1^S158A β2 γ2 GABAAR (Rattus norvegicus, UniProt P62813+P63138, S185A); assay: Patch clamp, HEK293, mutant GABAAR; assay type: cell-based; conditions: GABA-evoked currents
T10 construct: expressed in transfected cells; host or cells: HEK293
Description: as §1, §2, §3, §4

[11] = target: T11, α1^S205A β2 γ2 GABAAR (Rattus norvegicus, UniProt P62813+P63138, S232A); assay: Patch clamp, HEK293, mutant GABAAR; assay type: cell-based; conditions: GABA-evoked currents
T11 construct: expressed in transfected cells; host or cells: HEK293
Description: as §1, §2, §3, §4

[12] = target: T12, α1^T206A β2 γ2 GABAAR (Rattus norvegicus, UniProt P62813+P63138, T233A); assay: Patch clamp, HEK293, mutant GABAAR; assay type: cell-based; conditions: GABA-evoked currents
T12 construct: expressed in transfected cells; host or cells: HEK293
Description: as §1, §2, §3, §4

[13] = target: T13, α1^Y159A β2 γ2 GABAAR (Rattus norvegicus, UniProt P62813+P63138, Y186A); assay: Patch clamp, HEK293, mutant GABAAR; assay type: cell-based; conditions: GABA-evoked currents
T13 construct: expressed in transfected cells; host or cells: HEK293
Description: as §1, §2, §3, §4

[14] = target: T14, α1 β2^E181G γ2 GABAAR (Rattus norvegicus, UniProt P62813+P63138, E206G); assay: Patch clamp, HEK293, mutant GABAAR; assay type: cell-based
T14 construct: expressed in transfected cells; host or cells: HEK293
Text: (§5) The subunits are color-coded individually. The boxed regions are further enlarged in the middle panels, highlighting the predicted glutamate binding pocket in the α+ and β− interface, just below the loop C. […] Relative potentiation was obtained by normalizing potentiation observed in the mutated receptor to that in the respective wild-type receptor.
as §1, §2, §3, §4

[15] = target: T15, α1^K104D β2 γ2 GABAAR (Rattus norvegicus, UniProt P62813+P63138, K131D); assay: Patch clamp, HEK293, mutant GABAAR; assay type: cell-based
T15 construct: expressed in transfected cells; host or cells: HEK293
Text: as §5, §1, §2, §3, §4

[16] = target: T16, α1^K155D β2 γ2 GABAAR (Rattus norvegicus, UniProt P62813+P63138, K182D); assay: Patch clamp, HEK293, mutant GABAAR; assay type: cell-based; conditions: GABA-evoked currents
T16 construct: expressed in transfected cells; host or cells: HEK293
Text: as §5, §1, §2, §3, §4

NCCCC(=O)O [GABA, gamma-Aminobutyric acid]
[3H]glutamate binding activity in presence of competitor [1]: 939.2 ± 88.8 CPM
Imax (nA) [2]: 1.7 ± 0.4 nA
Hill Slope ([3]; GABA dose-response): 2.28 ± 0.74
Imax (nA) ([3]; GABA-evoked currents): 1.3 ± 0.4 nA
Hill Slope ([4]; GABA dose-response): 2.09 ± 0.93
Imax (nA) ([4]; GABA-evoked currents): 1.0 ± 0.5 nA
Hill Slope ([5]; GABA dose-response): 1.12 ± 0.37
Imax (nA) ([5]; GABA-evoked currents): 1.7 ± 0.9 nA
Hill Slope ([6]; GABA dose-response): 2.91 ± 1.30
Imax (nA) ([6]; GABA-evoked currents): 1.0 ± 0.5 nA
Imax (nA) [7]: 1.8 ± 0.8 nA
Imax (nA) [8]: 1.0 ± 0.7 nA
Imax (nA) [9]: 0.9 ± 0.5 nA
Imax (nA) [10]: 1.3 ± 0.5 nA
Imax (nA) [11]: 2.3 ± 1.1 nA
Imax (nA) [12]: 1.9 ± 0.8 nA
Imax (nA) [13]: 1.1 ± 0.5 nA
Hill Slope ([14]; GABA dose-response): 1.59 ± 0.14
Imax (nA) ([14]; GABA-evoked currents): 1.1 ± 0.2 nA
Hill Slope ([15]; GABA dose-response): 1.70 ± 0.17
Imax (nA) ([15]; GABA-evoked currents): 2.3 ± 0.7 nA
Imax (nA) [16]: 1.3 ± 0.5 nA
